The values that follow come from US8263606B2 (Xenon Pharmaceuticals Inc., priority 2008, dated 2012).

For orientation: inhibition means the drop in the measured response relative to a control, in per cent. For orientation: IC50 means the concentration at which inhibition is half-maximal. The melting point is the temperature, or range, at which the solid turns liquid.

The target in one data set is CYP3A4 (Homo sapiens, UniProt P08684). In words: Cytochrome P450 (CYP450) Inhibition Assay, CYP3A4 (Vivid fluorescence, BOMCC substrate). As to conditions: human, P450 Baculosomes (recombinant CYP3A4), probe BOMCC (Vivid substrate).
Chain of CYP3A4 (P08684 whole entry): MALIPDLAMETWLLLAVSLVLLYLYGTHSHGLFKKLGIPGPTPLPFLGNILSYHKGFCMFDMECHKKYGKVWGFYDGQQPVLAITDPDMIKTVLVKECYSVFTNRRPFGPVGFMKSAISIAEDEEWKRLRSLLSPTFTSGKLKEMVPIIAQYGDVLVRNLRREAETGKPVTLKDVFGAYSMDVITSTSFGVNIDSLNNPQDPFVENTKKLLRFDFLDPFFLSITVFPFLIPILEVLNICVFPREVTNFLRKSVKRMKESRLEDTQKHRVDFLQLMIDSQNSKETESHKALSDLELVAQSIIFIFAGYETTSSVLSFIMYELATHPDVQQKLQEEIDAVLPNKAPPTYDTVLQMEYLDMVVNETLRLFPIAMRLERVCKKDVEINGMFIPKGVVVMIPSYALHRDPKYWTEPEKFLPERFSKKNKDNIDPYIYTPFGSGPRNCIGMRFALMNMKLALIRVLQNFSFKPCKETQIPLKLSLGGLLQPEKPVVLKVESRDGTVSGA
The next data set relates to sodium channel. The experiment in a line: Guanidine influx assay (14C-guanidine radiotracer flux, in vitro). Type of data set: cell-based, human or rat. As to conditions: guanidine influx assay using a known cell line that expresses a sodium channel; activity level class. In outline: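 Cells (human/rat Nav, endogenous or recombinant), ~100,000/well, 20-24 h 37 °C/5% CO2. Wash LNHBSS (150 mM choline Cl, HEPES, glucose). Add cpd + aconitine/14C-guanidine mix, RT. Wash, dry, scintillation count. IC50: 4-PL fit; selectivity as IC50 ratio vs reference channel, e.g. Nav1.5.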

Compound `COc1cc2c(cc1F)C1(CO2)C(=O)Nc2ccccc21` (stereo not drawn) [Example 3.7, 5-fluoro-6-methoxyspiro[1-benzofuran-3,3′-indol]-2′(1′H)-one] returned a melting point of 222 to 225 °C. In addition, the inhibition at 10 µM at CYP3A4 is less than 50%. The IC50 with sodium channel fell in the range of 1 to 10 µM.

`O=C1Nc2ccccc2C12COc1cc3c(cc12)OCCO3` (stereo not drawn) [Example 3.10, 2,3-dihydrospiro[furo[2,3-g][1,4]benzodioxine-8,3′-indol]-2′(1′H)-one] showed a melting point of more than 250 °C. The inhibition at 10 µM at CYP3A4 was less than 50%. Also, the IC50 in the data set with sodium channel was in the range of 0.001 to 0.1 µM.

In the case of `O=C1Nc2ccccc2C12COc1cc3c(cc12)OCCCO3` (stereo not drawn) [Example 3.11, 3,4-dihydro-2H-spiro[furo[2,3-h][1,5]benzodioxepine-9,3′-indol]-2′(1′H)-one], the melting point lay in the range of 235 to 236 °C. Moreover, the inhibition at 10 µM on CYP3A4 is less than 50%. The 50% inhibitory concentration (IC50) in the data set on sodium channel was in the range of 1 to 10 µM.

In turn, `Cc1nc2cc3c(cc2o1)C1(CO3)C(=O)Nc2ccccc21` (stereo not drawn) [Example 3.12, 2-methylspiro[furo[2,3-f][1,3]benzoxazole-7,3′-indol]-2′(1′H)-one] yielded a melting point of 242 to 244 °C. Moreover, the inhibition at 10 µM at CYP3A4 was less than 50%. Further, the IC50 in the data set on sodium channel was not below 10 µM.

Turning to `Cn1c(=O)oc2cc3c(cc21)OCC31C(=O)Nc2ccccc21` (stereo not drawn) [Example 3.13, 3-methylspiro[furo[2,3-f][1,3]benzoxazole-7,3′-indole]-2,2′(1′H,3H)-dione], the melting point is more than 250 °C. Also, on CYP3A4, the inhibition at 10 µM is less than 50%. Moreover, the half-inhibitory concentration (IC50) in the data set with sodium channel is 1 to 10 µM.

With `Cn1c(=O)oc2cc3c(cc21)C1(CO3)C(=O)Nc2ccccc21` (stereo not drawn) [Example 3.14, 1-methylspiro[furo[3,2-f][1,3]benzoxazole-7,3′-indole]-2,2′(1′H,1′H)-dione], the melting point was more than 250 °C. For the same compound, the inhibition at 10 µM at CYP3A4 was less than 50%. Further, in the data set on sodium channel, the IC50 fell in the range of 1 to 10 µM.

Compound `O=C1Nc2c(Cl)cccc2C12COc1cc3c(cc12)CCO3` (stereo not drawn) [Example 3.15, 7′-chloro-5,6-dihydrospiro[benzo[1,2-b:5,4-b′]difuran-3,3′-indol]-2′(1′H)-one] registered a melting point of more than 250 °C. At CYP3A4, the inhibition at 10 µM is less than 50%. The IC50 with sodium channel lay in the range of 0.1 to 1 µM.

Turning to `O=C1Nc2c(F)cccc2C12COc1cc3c(cc12)CCO3` (stereo not drawn) [Example 3.16, 7′-fluoro-5,6-dihydrospiro[benzo[1,2-b:5,4-b′]difuran-3,3′-indol]-2′(1′H)-one], the melting point was more than 250 °C. The inhibition at 10 µM at CYP3A4 is less than 50%. Further, the IC50 with sodium channel was 0.1 to 1 µM.

In turn, `Cc1ccc(F)c2c1NC(=O)C21COc2cc3c(cc21)CCO3` (stereo not drawn) [Example 3.17, 4′-fluoro-7′-methyl-5,6-dihydrospiro[benzo[1,2-b:5,4-b′]difuran-3,3′-indol]-2′(1′H)-one] had a melting point of more than 250 °C. Besides, the inhibition at 10 µM on CYP3A4 was more than 50%. The IC50 with sodium channel was in the range of 0.1 to 1 µM.

Take `O=C1Nc2ccccc2C12COc1cc3c(cc12)CCCO3` (stereo not drawn) [Example 3.21, 6,7-dihydro-5H-spiro[furo[3,2-g]chromene-3,3′-indol]-2′(1′H)-one]: the melting point fell in the range of 216 to 220 °C. Besides, the inhibition at 10 µM on CYP3A4 was less than 50%. In the data set on sodium channel, the IC50 fell in the range of 0.1 to 1 µM.

Regarding `CN1C(=O)COc2cc3c(cc21)C1(CO3)C(=O)Nc2ccccc21` (stereo not drawn) [Example 3.22, 1-methyl-1H-spiro[furo[3,2-g][1,4]benzoxazine-8,3′-indole]-2,2′(1′H,3H)-dione], the melting point was more than 250 °C. For the same compound, at CYP3A4, the inhibition at 10 µM is less than 50%. In addition, the 50% inhibitory concentration (IC50) with sodium channel was 1 to 10 µM.

Take `CN1C(=O)COc2cc3c(cc21)OCC31C(=O)Nc2ccccc21` (stereo not drawn) [Example 3.23, 4-methyl-4,7-dihydrospiro[benzofuro[5,6-b][1,4]oxazine-8,3′-indoline]-2′,3(2H)-dione]: the melting point was more than 250 °C. In addition, at CYP3A4, the inhibition at 10 µM was less than 50%. Further, in the data set with sodium channel, the IC50 lay in the range of 1 to 10 µM.

In the case of `COc1cc2c(cc1C)[C@@]1(CO2)C(=O)Nc2ccccc21` [Example 3.25, (3S)-6-methoxy-5-methylspiro[1-benzofuran-3,3′-indol]-2′(1′H)-one], the melting point was more than 250 °C. Also, at CYP3A4, the inhibition at 10 µM was less than 50%. For the same compound, in the data set on sodium channel, the IC50 lay in the range of 1 to 10 µM.

As to `COc1cc2c(cc1C)[C@]1(CO2)C(=O)Nc2ccccc21` [Example 3.26, (3R)-6-methoxy-5-methylspiro[1-benzofuran-3,3′-indol]-2′(1′H)-one], the melting point was more than 250 °C. Also, the inhibition at 10 µM at CYP3A4 was more than 50%. Moreover, in the data set with sodium channel, the IC50 lay within 1 to 10 µM.

Consider `O=C1Nc2cc3c(cc2C12COc1cc4c(cc12)CCO4)OCCO3` (stereo not drawn) [Example 3.28, 2′,3′,5,6-tetrahydrospiro[benzo[1,2-b:5,4-b′]difuran-3,8′-[1,4]dioxino[2,3-f]indol]-7′(6′H)-one], for which the melting point is more than 250 °C. Further, the inhibition at 10 µM at CYP3A4 is more than 50%. The IC50 in the data set on sodium channel lay in the range of 1 to 10 µM.

As for `N#Cc1cc2c(cc1F)OCC21C(=O)Nc2ccccc21` (stereo not drawn) [Example 3.30, 6-fluoro-2′-oxo-1′,2′-dihydrospiro[1-benzofuran-3,3′-indole]-5-carbonitrile], the melting point lay within 222 to 224 °C. For the same compound, the inhibition at 10 µM on CYP3A4 was less than 50%. Moreover, in the data set on sodium channel, the IC50 fell in the range of 1 to 10 µM.

Take `O=C1Nc2cccc(F)c2C12COc1cc3c(cc12)OCCO3` (stereo not drawn) [Example 3.33, 4′-fluoro-2,3-dihydrospiro[furo[2,3-g][1,4]benzodioxine-8,3′-indol]-2′(1′H)-one]: the melting point was 282 to 285 °C. Besides, on CYP3A4, the inhibition at 10 µM was less than 50%. Further, the 50% inhibitory concentration (IC50) in the data set with sodium channel lay within 0.001 to 0.1 µM.

Consider `O=C1Nc2ccccc2C12COc1c(Cl)cc3c(c12)OCCO3` (stereo not drawn) [Example 3.42, 6-chloro-2,3-dihydrospiro[furo[3,2-f][1,4]benzodioxine-9,3′-indol]-2′(1′H)-one], for which the melting point was in the range of 255 to 257 °C. Moreover, the inhibition at 10 µM at CYP3A4 is less than 50%. Also, the IC50 in the data set on sodium channel is 1 to 10 µM.

Turning to `O=C1Nc2ccccc2C12COc1cc(F)c(F)cc12` (stereo not drawn) [Example 3.44, 5,6-difluorospiro[1-benzofuran-3,3′-indol]-2′(1′H)-one], the melting point is more than 200 °C. For the same compound, the inhibition at 10 µM on CYP3A4 was more than 50%. Moreover, the IC50 in the data set with sodium channel was in the range of 1 to 10 µM.

As for `O=C1Nc2ccccc2C12COc1cc3c(cc12)CCCC3` (stereo not drawn) [Example 3.45, 5′,6′,7′,8′-tetrahydrospiro[indole-3,3′-naphtho[2,3-b]furan]-2(1′H)-one], the melting point was more than 230 °C. For the same compound, on CYP3A4, the inhibition at 10 µM is more than 50%. Moreover, the IC50 with sodium channel lay within 1 to 10 µM.

Compound `COCCOc1ccc2c(c1)OCC21C(=O)Nc2ccccc21` (stereo not drawn) [Example 3.46, 6-(2-methoxyethoxy)spiro[1-benzofuran-3,3′-indol]-2′(1′H)-one] showed a melting point of 172 to 174 °C. Moreover, the inhibition at 10 µM at CYP3A4 was less than 50%. In the data set on sodium channel, the IC50 lay in the range of 1 to 10 µM.

As for `O=C1Nc2ccccc2C12COc1c2ccc2c1OCCO2` (stereo not drawn) [Example 3.48, 2,3-dihydrospiro[furo[2,3-f][1,4]benzodioxine-7,3′-indol]-2′(1′H)-one], the melting point was more than 250 °C. Also, on CYP3A4, the inhibition at 10 µM is less than 50%. Also, the IC50 in the data set with sodium channel lay within 1 to 10 µM.

`O=C1Nc2ccccc2C12COc1cc3nccnc3cc12` (stereo not drawn) [Example 3.51, spiro[furo[2,3-g]quinoxaline-8,3′-indol]-2′(1′H)-one] came in with a melting point of 206 to 207 °C. In addition, the inhibition at 10 µM on CYP3A4 is less than 50%. The IC50 with sodium channel was in the range of 1 to 10 µM.

`N#Cc1ccc(CN2C(=O)C3(COc4cc5c(cc43)CCO5)c3ccccc32)cc1` (stereo not drawn) [Example 4.23, 4-((2′-oxo-5,6-dihydro-2H-spiro[benzofuro[6,5-b]furan-3,3′-indoline]-1′-yl)methyl)benzonitrile] showed a melting point of 69 to 71 °C. The inhibition at 10 µM on CYP3A4 is less than 50%. Moreover, the IC50 with sodium channel is 0.001 to 0.1 µM.

As for `N#Cc1ccccc1-c1ccc(CN2C(=O)C3(COc4cc5c(cc43)CCO5)c3ccccc32)cc1` (stereo not drawn) [Example 4.24, 4′-[(2′-oxo-5,6-dihydrospiro[benzo[1,2-b:5,4-b′]difuran-3,3′-indol]-1′(2′H)-yl)methyl]biphenyl-2-carbonitrile], the melting point lay in the range of 192 to 194 °C. Further, the inhibition at 10 µM on CYP3A4 is less than 50%. In the data set with sodium channel, the half-maximal inhibitory concentration (IC50) was in the range of 0.1 to 1 µM.

For `C[C@@H](CN1C(=O)C2(COc3cc4c(cc32)CCO4)c2ccccc21)OCOCc1ccccc1` (stereo partly drawn) [Example 4.25, 1′-{(2S)-2-[(benzyloxy)methoxy]propyl}-5,6-dihydrospiro[benzo[1,2-b:5,4-b′]difuran-3,3′-indol]-2′(1′H)-one], the melting point is 49 to 52 °C. Besides, the inhibition at 10 µM on CYP3A4 was more than 50%. Moreover, the IC50 with sodium channel was in the range of 0.1 to 1 µM.

Turning to `O=C1N(Cc2ccc3c(c2)OCCO3)c2ccccc2C12COc1cc3c(cc12)CCO3` (stereo not drawn) [Example 4.26, 1′-(2,3-dihydro-1,4-benzodioxin-6-ylmethyl)-5,6-dihydrospiro[benzo[1,2-b:5,4-b′]difuran-3,3′-indol]-2′(1′H)-one], the melting point was 173 to 175 °C. Moreover, the inhibition at 10 µM at CYP3A4 is less than 50%. Moreover, in the data set with sodium channel, the IC50 fell in the range of 0.001 to 0.1 µM.

In the case of `O=C1N(Cc2ccc(C(F)(F)F)o2)c2cccc(Cl)c2C12COc1cc3c(cc12)CCO3` (stereo not drawn) [Example 4.33, 4′-chloro-1′-{[5-(trifluoromethyl)furan-2-yl]methyl}-5,6-dihydrospiro[benzo[1,2-b:5,4-b′]difuran-3,3′-indol]-2′(1′H)-one], the melting point lay within 166 to 169 °C. On CYP3A4, the inhibition at 10 µM is more than 50%. Moreover, the IC50 in the data set on sodium channel was in the range of 0.001 to 0.1 µM.
